Reference: the supplement of paper PMC10307832

Tests used:
Test in all cases: relative viability (nuclei count vs DMSO), 5 days (fraction); higher = more cells survive
IDH-C35 + Navitoclax = compound: Cc1ccccc1C(C(=O)NC1CCCCC1)N(C(=O)Cn1ccnc1C)c1cccc(F)c1 [IDH-C35] + CC1(C)CCC(c2ccc(Cl)cc2)=C(CN2CCN(c3ccc(C(=O)NS(=O)(=O)c4ccc(N[C@H](CCN5CCOCC5)CSc5ccccc5)c(S(=O)(=O)C(F)(F)F)c4)cc3)CC2)C1 [Navitoclax] (partner 0.5 µM)
In short: (§1)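 Lung cancer cell lines in 1536-well plates got either a single drug or a fixed anchor-drug dose together with five library-drug doses (not always all listed) in √10 steps, by pin tool, on the day after seeding. Nuclei were counted after 5 days, and relative viability is the treated-to-vehicle ratio of nuclei counts. Values are medians of duplicate plates.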

IDH-C35 + Crizotinib = compound: Cc1ccccc1C(C(=O)NC1CCCCC1)N(C(=O)Cn1ccnc1C)c1cccc(F)c1 [IDH-C35] + C[C@@H](Oc1cc(-c2cnn(C3CCNCC3)c2)cnc1N)c1c(Cl)ccc(F)c1Cl [Crizotinib] (partner 1 µM)
In short: as §1

[1] = compound: CC1=C(C(=NN1)C)CC2=C(C3=C(S2)N(C(=O)N(C3=O)C)CC(C)C)C(=O)N4C[C@@H](CO4)O + Cc1cc(Nc2cc(N3CCN(C)CC3)nc(Sc3ccc(NC(=O)C4CC4)cc3)n2)n[nH]1 [Tozasertib] (partner 0.1 µM)
In short: as §1

IDH-C35 + Pemetrexed = compound: Cc1ccccc1C(C(=O)NC1CCCCC1)N(C(=O)Cn1ccnc1C)c1cccc(F)c1 [IDH-C35] + Nc1nc2[nH]cc(CCc3ccc(C(=O)N[C@@H](CCC(=O)O)C(=O)O)cc3)c2c(=O)[nH]1 [Pemetrexed] (partner 0.2 µM)
In short: as §1

NCI-H322M showed a relative viability (IDH-C35 + Navitoclax; first compound 0.08 µM) of 1.34, a relative viability (IDH-C35 + Navitoclax; first compound 0.253 µM) of 1.12 and a relative viability (IDH-C35 + Navitoclax; first compound 0.8 µM) of 1.23. The relative viability (IDH-C35 + Navitoclax; first compound 2.53 µM) was 1.15, the relative viability (IDH-C35 + Navitoclax; first compound 8 µM) was 1.2 and the relative viability (IDH-C35 + Crizotinib; first compound 0.08 µM) was 0.863. For the same cell line, the relative viability (IDH-C35 + Crizotinib; first compound 0.253 µM) was 0.961, the relative viability (IDH-C35 + Crizotinib; first compound 0.8 µM) was 0.91 and the relative viability (IDH-C35 + Crizotinib; first compound 2.53 µM) was 0.931. The relative viability (IDH-C35 + Crizotinib; first compound 8 µM) was 1.02, the relative viability ([1]; first compound 0.0025 µM) was 0.532 and the relative viability ([1]; first compound 0.007906 µM) was 0.485. The relative viability ([1]; first compound 0.025 µM) was 0.454, the relative viability ([1]; first compound 0.07906 µM) was 0.495 and the relative viability ([1]; first compound 0.25 µM) was 0.461. For the same cell line, the relative viability (IDH-C35 + Pemetrexed; first compound 0.08 µM) was 0.622, the relative viability (IDH-C35 + Pemetrexed; first compound 0.253 µM) was 0.554 and the relative viability (IDH-C35 + Pemetrexed; first compound 0.8 µM) was 0.644. For the same cell line, the relative viability (IDH-C35 + Pemetrexed; first compound 2.53 µM) was 0.578 and the relative viability (IDH-C35 + Pemetrexed; first compound 8 µM) was 0.608.
NCI-H2228 was tested, and the relative viability (IDH-C35 + Navitoclax; first compound 0.08 µM) was 0.915, the relative viability (IDH-C35 + Navitoclax; first compound 0.253 µM) was 1.18 and the relative viability (IDH-C35 + Navitoclax; first compound 0.8 µM) was 1.29. The relative viability (IDH-C35 + Navitoclax; first compound 2.53 µM) was 0.875, the relative viability (IDH-C35 + Navitoclax; first compound 8 µM) was 0.706 and the relative viability (IDH-C35 + Crizotinib; first compound 0.08 µM) was 0.418. It also gave a relative viability (IDH-C35 + Crizotinib; first compound 0.253 µM) of 0.457, a relative viability (IDH-C35 + Crizotinib; first compound 0.8 µM) of 0.51 and a relative viability (IDH-C35 + Crizotinib; first compound 2.53 µM) of 0.496. The relative viability (IDH-C35 + Crizotinib; first compound 8 µM) was 0.506, the relative viability ([1]; first compound 0.0025 µM) was 0.239 and the relative viability ([1]; first compound 0.007906 µM) was 0.248. The relative viability ([1]; first compound 0.025 µM) was 0.265, the relative viability ([1]; first compound 0.07906 µM) was 0.26 and the relative viability ([1]; first compound 0.25 µM) was 0.279. It also gave a relative viability (IDH-C35 + Pemetrexed; first compound 0.08 µM) of 0.307, a relative viability (IDH-C35 + Pemetrexed; first compound 0.253 µM) of 0.336 and a relative viability (IDH-C35 + Pemetrexed; first compound 0.8 µM) of 0.332. For the same cell line, the relative viability (IDH-C35 + Pemetrexed; first compound 2.53 µM) was 0.328 and the relative viability (IDH-C35 + Pemetrexed; first compound 8 µM) was 0.3.
NCI-H647 gave a relative viability (IDH-C35 + Navitoclax; first compound 0.08 µM) of 1.26, a relative viability (IDH-C35 + Navitoclax; first compound 0.253 µM) of 1.18 and a relative viability (IDH-C35 + Navitoclax; first compound 0.8 µM) of 0.916. The relative viability (IDH-C35 + Navitoclax; first compound 2.53 µM) was 1.04, the relative viability (IDH-C35 + Navitoclax; first compound 8 µM) was 1.12 and the relative viability (IDH-C35 + Crizotinib; first compound 0.08 µM) was 0.876. The relative viability (IDH-C35 + Crizotinib; first compound 0.253 µM) was 1.02, the relative viability (IDH-C35 + Crizotinib; first compound 0.8 µM) was 1.05 and the relative viability (IDH-C35 + Crizotinib; first compound 2.53 µM) was 1.07. For the same cell line, the relative viability (IDH-C35 + Crizotinib; first compound 8 µM) was 0.98, the relative viability ([1]; first compound 0.0025 µM) was 0.2 and the relative viability ([1]; first compound 0.007906 µM) was 0.265. For the same cell line, the relative viability ([1]; first compound 0.025 µM) was 0.269, the relative viability ([1]; first compound 0.07906 µM) was 0.189 and the relative viability ([1]; first compound 0.25 µM) was 0.322. It also gave a relative viability (IDH-C35 + Pemetrexed; first compound 0.08 µM) of 0.186, a relative viability (IDH-C35 + Pemetrexed; first compound 0.253 µM) of 0.161 and a relative viability (IDH-C35 + Pemetrexed; first compound 0.8 µM) of 0.175. The relative viability (IDH-C35 + Pemetrexed; first compound 2.53 µM) was 0.171 and the relative viability (IDH-C35 + Pemetrexed; first compound 8 µM) was 0.167.
